Assays:
rat TRPV2-4M = biological target: T1, rat TRPV2-4M (Rattus norvegicus, UniProt Q9WUD2, F472S/L507M/L510T/Q530E); parameters: method as in Zhang et al., 2016; details: ref Zhang et al., 2016; cited from earlier work
T1 construct: expressed in transfected cells; host or cells: Xenopus laevis oocytes
T1 sequence (Q9WUD2 1-761 F472S/L507M/L510T/Q530E): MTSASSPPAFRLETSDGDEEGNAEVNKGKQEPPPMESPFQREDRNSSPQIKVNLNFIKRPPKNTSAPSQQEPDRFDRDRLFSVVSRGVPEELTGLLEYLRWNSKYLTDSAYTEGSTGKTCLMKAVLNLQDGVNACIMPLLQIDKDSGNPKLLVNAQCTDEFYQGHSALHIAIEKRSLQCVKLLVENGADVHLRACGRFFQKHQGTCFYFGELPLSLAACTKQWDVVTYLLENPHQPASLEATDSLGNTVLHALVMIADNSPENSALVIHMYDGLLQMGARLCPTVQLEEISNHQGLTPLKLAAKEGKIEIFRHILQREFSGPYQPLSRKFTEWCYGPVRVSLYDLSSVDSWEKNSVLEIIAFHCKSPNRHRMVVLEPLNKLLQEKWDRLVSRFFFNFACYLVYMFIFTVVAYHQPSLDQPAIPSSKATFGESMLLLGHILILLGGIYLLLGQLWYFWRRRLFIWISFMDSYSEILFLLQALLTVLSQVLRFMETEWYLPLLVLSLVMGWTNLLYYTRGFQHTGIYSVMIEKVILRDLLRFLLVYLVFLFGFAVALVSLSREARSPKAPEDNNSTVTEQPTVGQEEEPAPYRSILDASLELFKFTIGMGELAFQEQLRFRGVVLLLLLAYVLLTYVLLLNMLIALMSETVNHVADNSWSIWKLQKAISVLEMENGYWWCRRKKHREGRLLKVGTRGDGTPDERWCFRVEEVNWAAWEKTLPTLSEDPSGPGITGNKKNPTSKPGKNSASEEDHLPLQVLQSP

[1] = test system: TRPV3 single point mutants (V587L, F625L, F656I and F666Y); details: 2-APB 3 mM, room temperature
Protocol: All channel constructs were expressed in Xenopus laevis oocytes and studied using the two-electrode voltage clamp technique (TEVC) following 1–4 days of incubation after cRNA injection. The animal care and experimental procedures were performed in accordance with the Guide for the Care and Use of Laboratory Animals and were approved by the Animal Care and Use Committee of the National Institute of Neurological Disorders and Stroke (Animal protocol number 1253–17). Oocytes were removed surgically and incubated with agitation for 1 hr in a solution containing (in mM) 82.5 NaCl, 2.5 KCl, 1 MgCl2, 5 HEPES, pH 7.6 (with NaOH), and collagenase (2 mg/ml; Worthington Biochemical, Lakewood, NJ). […]
For temperature-activation experiments, calcium-activated chloride currents were minimized by using calcium-free solution containing 30 µM Caccinh-A01 and recording at negative membrane voltages. Heat stimuli were achieved by passing the external recording solution through glass capillary spirals immersed in a water bath maintained at about 70°C, and recordings were performed during constant perfusion with temperature measured using a thermistor (TA-29, Warner Instruments) located close to the cell. […] The mean I vs T relations were calculated by automatically binning each of the recordings in temperature intervals of 2°C, and averaging a single data point within each interval per cell. […]

Compound | saturating concentration of RTx (rat TRPV2-4M) [nM] | channel activation (current response) [1]
C=C(C)[C@]12C[C@@H](C)[C@@]34O[C@](Cc5ccccc5)(O[C@@H]1[C@@H]3C=C(COC(=O)Cc1ccc(O)c(OC)c1)C[C@]1(O)C(=O)C(C)=C[C@@H]41)O2 [RTx, resiniferatoxin] | 100 | 
NCCOB(c1ccccc1)c1ccccc1 [2-APB, 2-aminoethoxydiphenyl borate] |  | strong responses
